Entries after “also recorded” stand apart in the source; their conditions may differ.
Columns and labels:
Type in all cases: cell-based, human
[1] = tested on: MECP2-KO neurons; assay: Neuronal morphology (neurites, spine density); settings: vs KO untreated
[2] = tested on: MECP2-KO cortical organoids; assay: MEA electrophysiology of cortical organoids; settings: 1 μM for one month, compared with control organoids
Description: (§1) Multi-electrode array (MEA) analysis. MEA analyses of neurons and cortical organoids were performed as described in Nageshappa et al. (Mol. Psychiatry 21:178-188 (2016)). Briefly, 3D neurosphere cultures of NPC derivation were plated on dual-chamber MEA; spontaneous spike activity was evaluated with the MED64 System (Panasonic). Glutamatergic (AP5, NBQX), GABAergic (Gabazine), and gap channel (Mefloquine) antagonism were used to check neuronal activity. After measurement, neurons were immunostained to check morphology and density. Recorded spikes were analyzed with the software Neuroexplorer (Nex Technologies, Madison, Ala., USA). For cortical organoids, 1-month organoids were plated on MEA plates and recordings were collected with a Maestro MEA system and AxIS Software Spontaneous Neural Configuration (Axion Biosystems, Atlanta, Ga., USA) using a customized script. The plate rested in the machine for three minutes followed by four minutes of recording. […] The synchrony index was calculated using a 20 ms cross-correlogram synchrony window was used to determine the synchrony index. […]
(§2) Nefiracetam and PHA 543613 rescue network activity in MECP2-KO cortical organoids. The therapeutic efficacy of Nefiracetam and PHA 543613 was evaluated with cortical organoids, a complex, three-dimensional human neurodevelopmental model that closely recapitulates aspects of human fetal neurodevelopment. […]

[3] = tested on: MECP2-KO cortical organoids; assay: Cortical organoid diameter; settings: 1 μM for one month, 2-month old organoids
Description: Generation of cortical organoids. Cortical organoid generation was performed according to Trujillo et al. (Cell Stem Cell 25:558-569.e7 (2019)). iPSCs cultured 5-7 d were dissociated with 1:1 Accutase (Life Technologies) in PBS, and 4×10^6 cells/well in mTeSR1 supplemented with 10 μM SB (Stemgent), 1 μM Dorso (R&D Systems), and 5 μM Y-27632 (EMD-Millipore, Burlington, Mass., USA) were plated on rotating suspension. […]
as §2

[4] = tested on: MECP2-KO cortical organoids; assay: RNA sequencing and gene ontology analysis of cortical organoids; settings: 1 μM for one month, two-month old organoids
Description: RNA-seq analyses. RNA-seq analyses were performed as described in Marchetto et al. (Nature 504:525-529 (2013)). Briefly, RNeasy Mini kit (Qiagen) isolated RNA for library preparation (Illumina TruSeq RNA Sample Preparation Kit; San Diego, Calif., USA) and sequencing (Illumina HiSeq2000, 50 bp paired-end reads, 50 million high-quality sequencing fragments per sample on average).
Gene ontology (GO) analysis. RNA-seq enrichment was with plugins WebGestalt and Cytoscape and considered only statistically significant categories (P<0.05). Genes evaluated for differential expression set the background for GO annotation and enrichment analysis.
Nefiracetam and PHA 543613 rescue network activity in MECP2-KO cortical organoids. The therapeutic efficacy of Nefiracetam and PHA 543613 was evaluated with cortical organoids, a complex, three-dimensional human neurodevelopmental model that closely recapitulates aspects of human fetal neurodevelopment. MECP2-KO and control cortical organoids were generated, as described above (see FIG. 9A, and FIG. 10A-B). One-month old cortical organoids were treated for another month with either Nefiracetam (1 μM) or PHA 543613 (1 μM), and experiments and analyses were performed using organoids at 2-3 months of age. […]

[5] = tested on: MECP2-mosaic (CTR/KO) neurospheres; assay: MEA analysis of neurospheres; settings: 1 μM, after 5 weeks of treatment, vs CTR/KO untreated
Description: as §1, with “recording. Axion Biosystems' Neural Metrics Tool classified electrodes with at least 5 spikes/min as active. Bursts were identified using an inter-spike interval (ISI) threshold requiring a 5-spike minimum and 100 ms maximum ISI.” for “recording.”

SMILES	spine density / neuronal spine-like protrusions [1]	population spiking (MEA) [2]	diameter of MECP2-KO organoids [3]	expression of genes in pathways relevant to synaptic function [4]	MEA overall spike count / spike frequency [5]
O=C(N[C@H]1CN2CCC1CC2)c1cc2ccoc2cn1 [PHA 543613, N-[(3R)-1-azabicyclo[2.2.2]oct-3-yl]furo[2,3-c]pyridine-5-carboxamide]	rescued or partially rescued	increased population spiking to a level not significantly different from that of control organoids	increased	promoted expression; also recorded: upregulated expression	increased
Cc1cccc(C)c1NC(=O)CN1CCCC1=O [Nefiracetam, nefiracetam]	rescued or partially rescued	increased population spiking to a level not significantly different from that of control organoids	increased	promoted expression; also recorded: upregulated genetic expression	increased
